Data as given in patent US6815542B2 (priority 2000, dated 2004).

Legend:
[1] = Oral administration in rats over four weeks (clinical pathology); type: in vivo; conditions: 180 mg/kg over four weeks
Text: Furthermore, it is contemplated that treatment of a viral disease with Levovirin is predominantly based on the modulation of the Th1/Th2 balance towards a Th1 dominated response, and not predominantly based on a direct antiviral effect. The term “direct antiviral” effect or activity as used herein refers to an immediate effect or activity of a drug on viral assembly or replication. In contrast, a reduction of viral activity or replication that is at least in part mediated by one or more components of the immune system is not considered a “direct antiviral” effect or activity. Likewise, it should be appreciated that a relative reduction of the Th2 response during a treatment may be especially advantageous in diseases that are correlated with an increased Th2 response (e.g., HCV infection).

[2] = test system: IMP dehydrogenase; conditions: cited from earlier work
[3] = test system: ten different viruses; conditions: compared with Ribavirin; cited from earlier work
[4] = preliminary toxicology studies; cited from earlier work

NC(=O)c1ncn([C@@H]2O[C@H](CO)[C@@H](O)[C@H]2O)n1 [Ribavirin, 1-β-D-ribofuranosyl-1,2,4-triazole-3-carboxamide]
clinical pathology after oral administration [1]: significant hemolytic anemia and leukopenia | inhibition of IMP dehydrogenase [2]: inhibitor of IMP dehydrogenase

N=C(N)c1ncn([C@@H]2O[C@H](CO)[C@@H](O)[C@H]2O)n1 [Viramidine]
antiviral activity [3]: active in ten different viruses—comparable to Ribavirin | toxicity relative to Ribavirin [4]: less toxic than Ribavirin | inhibition of IMP dehydrogenase [2]: inhibitor of IMP dehydrogenase

NC(=O)c1ncn([C@H]2O[C@@H](CO)[C@H](O)[C@@H]2O)n1 [Levovirin]
clinical pathology after oral administration [1]: did not produce any observable clinical pathology
